PubChem BioAssay (NCI)
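A five-concentration, 48-hour dose response in 96-well plates underlies each endpoint, interpolated linearly between surrounding concentrations. GI50 is the concentration that inhibits growth by half. Definition used: TGI = concentration required for complete inhibition of growth.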

Columns and labels:
Assay in all cases: NCI anticancer screen, dose series, 48 h
[1] = tested on: A498 renal
[2] = tested on: CAKI-1 renal
[3] = tested on: CCRF-CEM leukemia
[4] = tested on: DU-145 prostate
[5] = tested on: HCT-15 colon
[6] = tested on: HL-60(TB) leukemia
[7] = tested on: HOP-92 NSCLC
[8] = tested on: HS 578T breast
[9] = tested on: IGROV1 ovarian
[10] = tested on: MALME-3M melanoma
[11] = tested on: MDA-MB-231 breast
[12] = tested on: MDA-MB-435
[13] = tested on: MDA-MB-468 breast
[14] = tested on: MOLT-4 leukemia
[15] = tested on: NCI-H226 lung
[16] = tested on: NCI-H460 lung
[17] = tested on: NCI/ADR-RES ovarian
[18] = tested on: OVCAR-3 ovarian
[19] = tested on: RXF 393 renal
[20] = tested on: SF-295 CNS
[21] = tested on: SK-MEL-2 melanoma
[22] = tested on: SK-MEL-5 melanoma
[23] = tested on: SN12C renal
[24] = tested on: SNB-75 CNS
[25] = tested on: SR leukemia
[26] = tested on: SW-620 colon
[27] = tested on: UACC-257 melanoma
[28] = tested on: UACC-62 melanoma
[29] = tested on: UO-31 renal

For `Cc1ccc(C(C)C)cc1Oc1cccc(-c2c(-c3ccc(C(F)(F)F)cc3)ncn2C2CCNCC2)n1`, the GI50 [1] was 1570 nM, the TGI [1] was 3.05 µM and the GI50 [2] was 1420 nM. It also gave a TGI [2] of 2850 nM, a GI50 [3] of 2260 nM and a TGI [3] of 27.9 µM. The GI50 [4] was 1680 nM, the TGI [4] was 3.1 µM and the GI50 [5] was 1360 nM. The TGI [5] was 2690 nM, the GI50 [6] was 1050 nM and the TGI [6] was 3.36 µM. It also gave a GI50 [7] of 1350 nM, a TGI [7] of 2840 nM and a GI50 [8] of 1680 nM. It also gave a TGI [8] of 3.67 µM, a GI50 [9] of 1340 nM and a TGI [9] of 2670 nM. It also gave a GI50 [10] of 1430 nM, a TGI [10] of 2770 nM and a GI50 [11] of 1480 nM. For the same compound, the TGI [11] was 2810 nM, the GI50 [12] was 1700 nM and the TGI [12] was 3.19 µM. It also gave a GI50 [13] of 1330 nM, a TGI [13] of 2730 nM and a GI50 [14] of 1690 nM. The TGI [14] was 4.44 µM, the GI50 [15] was 1480 nM and the TGI [15] was 3.01 µM. The GI50 [16] was 1630 nM, the TGI [16] was 3.08 µM and the GI50 [17] was 1600 nM. For the same compound, the TGI [17] was 3.19 µM, the GI50 [18] was 1800 nM and the TGI [18] was 3.28 µM. The GI50 [19] was 1340 nM, the TGI [19] was 2720 nM and the GI50 [20] was 1530 nM. The TGI [20] was 2970 nM, the GI50 [21] was 1820 nM and the TGI [21] was 3.47 µM. The GI50 [22] was 1610 nM, the TGI [22] was 2990 nM and the GI50 [23] was 1350 nM. The TGI [23] was 2660 nM, the GI50 [24] was 1300 nM and the TGI [24] was 2680 nM. The GI50 [25] was 1610 nM, the TGI [25] was 4.13 µM and the GI50 [26] was 1470 nM. For the same compound, the TGI [26] was 2910 nM, the GI50 [27] was 1750 nM and the TGI [27] was 3.4 µM. For the same compound, the GI50 [28] was 1440 nM, the TGI [28] was 2760 nM and the GI50 [29] was 1330 nM. It also gave a TGI [29] of 2630 nM.
